Data from patent US8431700B2, “Alkylsulfonyl-2,3-dihydrospiro[indene-1,4′-piperidine] analogs as GlyT1 inhibitors, methods for making same, and use of same in treating psychiatric disorders” (Vanderbilt University, priority 2009, dated 2013).

System: GlyT1
Test: not given
Details: cited from earlier work

Structure (SMILES) | Duration of increased glycine levels in the prefrontal cortex [h]
CN(CC[C@@H](Oc1ccc(-c2ccccc2)cc1)c1ccc(F)cc1)CC(=O)O [(R)-NFPS] | > 24

Biological target: T1, GlyT1 (Homo sapiens, UniProt P48067)
T1 construct: Human placental choriocarcinoma cells endogenously expressing GlyT1; host or cells: JAR human placental choriocarcinoma cells
T1 sequence (P48067 1-706): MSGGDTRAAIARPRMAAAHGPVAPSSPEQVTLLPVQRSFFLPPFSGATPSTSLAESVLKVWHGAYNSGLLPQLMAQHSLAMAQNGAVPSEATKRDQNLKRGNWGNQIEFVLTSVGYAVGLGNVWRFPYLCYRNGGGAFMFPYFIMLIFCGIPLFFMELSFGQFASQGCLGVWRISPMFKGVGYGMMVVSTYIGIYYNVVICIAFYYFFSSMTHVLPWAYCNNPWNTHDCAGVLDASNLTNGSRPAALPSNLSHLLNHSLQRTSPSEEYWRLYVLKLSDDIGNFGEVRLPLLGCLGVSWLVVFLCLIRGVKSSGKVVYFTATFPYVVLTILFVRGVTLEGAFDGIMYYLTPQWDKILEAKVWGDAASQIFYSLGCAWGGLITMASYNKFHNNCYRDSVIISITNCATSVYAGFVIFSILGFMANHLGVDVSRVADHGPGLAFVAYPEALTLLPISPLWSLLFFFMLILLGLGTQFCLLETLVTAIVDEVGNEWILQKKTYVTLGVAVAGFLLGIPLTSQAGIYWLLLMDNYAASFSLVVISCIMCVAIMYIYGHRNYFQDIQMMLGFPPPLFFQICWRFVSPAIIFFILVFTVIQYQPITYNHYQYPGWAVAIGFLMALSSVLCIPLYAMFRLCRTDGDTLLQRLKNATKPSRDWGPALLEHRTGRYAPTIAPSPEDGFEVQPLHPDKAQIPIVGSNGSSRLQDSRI
Test: [14C]-glycine uptake in JAR cells endogenously expressing GlyT1 (scintillation proximity assay)
Format: cell-based
Details: 10 μM [14C]-glycine, 3 h, read-out: Potency
Excerpt: The procedure used was analogous to that disclosed in Williams, J. B.; Mallorga P. J.; Lemaire W.; Williams D. L.; Na S.; Patel S.; Conn J. P.; Pettibone D. J.; Austin C.; Sur C.; “Development of a scintillation proximity assay for analysis of Na+/Cl−-dependent neurotransmitter transporter activity,” ANAL. BIOCHEM. 2003 Oct. 1; 321(1):31-7.
Human placental choriocarcinoma cells (JAR cells, ATCC No. HTB-144) were obtained from the American Type Culture Collection (Manassas, Va.). JAR cells were cultured in 96-well Cytostar T plates (GE Healthcare No. RPNQ0162) in RPMI 1640 medium (Sigma-Aldrich) containing 10% fetal bovine serum, 10 mM HEPES, 1 mM sodium pyruvate, penicillin (100 μg/ml), and streptomycin (100 μg/ml). Cells were plated at a density of 1.3×10^4 cells/well and grown at 37° C. in a humidified atmosphere of 5% CO2 for 40-48 h. Culture medium was removed from the Cytostar T plate and JAR cells were incubated with 30 μl of TB1A buffer (120 mM NaCl, 2 mM KCl, 1 mM CaCl2, 1 mM MgCl2, 10 mM Hepes, 5 mM L-alanine, pH 7.5 adjusted with 1 M Tris base) with or without multiple concentrations of test compound (added at 2× final concentration) for 1 min. Then 30 μl of [^14C]-glycine (Perkin-Elmer) diluted in TB1A was added to each well to give a final concentration of 10 μM. Cytostar T plates were then incubated in the dark at room temperature for 3 h, sealed with opaque white bottom plate seals (Perkin-Elmer) and clear top plate seals (Topseal A, Perkin-Elmer), and were counted on a Top Count (Packard). Glycine uptake was determined by measuring radioactivity in each well and plotted as a function of concentration of test compound. […] Nonspecific uptake of [^14C]-glycine was determined in the presence of 10 mM cold glycine. [^14C]-taurine (American Radiolabeled Chemicals, Inc.) uptake experiments were performed according to the same protocol except that 10 mM cold taurine was used to determine nonspecific uptake. For GlyT2 assays, COS-7 (ATCC No. CRL-1651) cells were utilized. COS-7 cells were transiently transfected with the human GlyT2 cDNA (Origene Technologies Inc., SC303452) using Fugene 6 (Roche) according to the manufacturer's instructions in Dulbecco's modified Eagle's medium (DMEM, Invitrogen) containing 10% Fetal Bovine Serum, 10 mM HEPES, 1 mM sodium pyruvate, penicillin (100 μg/ml), and streptomycin (100 μg/ml). The following day, the cells were plated at a density of 5×10^5 cells/well in Cytostar T plates and maintained at 37° C. in a humidified atmosphere of 5% CO2 for 24 h. GlyT2 glycine uptake experiments were performed according to the same protocol previously described.

Structure (SMILES) | IC50 [nM]
CCCS(=O)(=O)N1CCC2(CC1)c1ccccc1CC2NC(=O)c1ccc(Cl)cc1Cl (single isomer, unassigned) [Compound 7c] | 1300
CS(=O)(=O)N1CCC2(CC1)c1ccccc1CC2NC(=O)c1ccc(Cl)cc1Cl (centres unmarked) [Compound 2a] | > 10000
CCS(=O)(=O)N1CCC2(CC1)c1ccccc1CC2NC(=O)c1ccc(Cl)cc1Cl (centres unmarked) [Compound 2b] | > 10000
CCCS(=O)(=O)N1CCC2(CC1)c1ccccc1CC2NC(=O)c1ccc(Cl)cc1Cl (centres unmarked) [Compound 2c] | 450
CC(C)S(=O)(=O)N1CCC2(CC1)c1ccccc1CC2NC(=O)c1ccc(Cl)cc1Cl (centres unmarked) [Compound 2e] | > 10000
CCCCS(=O)(=O)N1CCC2(CC1)c1ccccc1CC2NC(=O)c1ccc(Cl)cc1Cl (centres unmarked) [Compound 2f] | > 10000
O=C(NC1Cc2ccccc2C12CCN(S(=O)(=O)c1cccs1)CC2)c1ccc(Cl)cc1Cl (centres unmarked) [Compound 2i] | > 10000
Cn1cnc(S(=O)(=O)N2CCC3(CC2)c2ccccc2CC3NC(=O)c2ccccc2Cl)c1 (centres unmarked) [Compound 4a] | 18
Cn1cnc(S(=O)(=O)N2CCC3(CC2)c2ccccc2CC3NC(=O)c2ccc(Cl)cc2)c1 (centres unmarked) [Compound 4b] | 15
Cn1cnc(S(=O)(=O)N2CCC3(CC2)c2ccccc2CC3NC(=O)c2ccc(F)cc2F)c1 (centres unmarked) [Compound 4c] | 18
Cn1cnc(S(=O)(=O)N2CCC3(CC2)c2ccccc2CC3NC(=O)c2c(F)cccc2F)c1 (centres unmarked) [Compound 4d] | 10
Cn1cnc(S(=O)(=O)N2CCC3(CC2)c2ccccc2CC3NC(=O)c2ccc(Cl)c(Cl)c2)c1 (centres unmarked) [Compound 4e] | 53
Cn1cnc(S(=O)(=O)N2CCC3(CC2)c2ccccc2CC3NC(=O)c2ccccc2C(F)(F)F)c1 (centres unmarked) [Compound 4f] | 24
Cn1cnc(S(=O)(=O)N2CCC3(CC2)c2ccccc2CC3NC(=O)c2cccc(C(F)(F)F)c2)c1 (centres unmarked) [Compound 4g] | 310
CCCS(=O)(=O)N1CCC2(CC1)c1ccccc1CC2NC(=O)c1ccc(Cl)cc1 (centres unmarked) [Compound 5a] | 1000
CCCS(=O)(=O)N1CCC2(CC1)c1ccccc1CC2NC(=O)c1c(F)cccc1F (centres unmarked) [Compound 5b] | 1160
CCCS(=O)(=O)N1CCC2(CC1)c1ccccc1CC2NC(=O)c1ccc(Cl)c(Cl)c1 (centres unmarked) [Compound 5c] | 609
CCCS(=O)(=O)N1CCC2(CC1)c1ccccc1CC2NC(=O)c1ccccc1C(F)(F)F (centres unmarked) [Compound 5d] | 674
CCCS(=O)(=O)N1CCC2(CC1)c1ccccc1CC2NC(=O)c1cccc(C(F)(F)F)c1 (centres unmarked) [Compound 5e] | 1600
CCCS(=O)(=O)N1CCC2(CC1)c1ccccc1CC2NC(=O)c1ccc(C(F)(F)F)cc1 (centres unmarked) [Compound 5f] | 270
CCCS(=O)(=O)N1CCC2(CC1)c1ccccc1CC2NC(=O)c1ccccc1OC (centres unmarked) [Compound 5g] | 2700
CCCS(=O)(=O)N1CCC2(CC1)c1ccccc1CC2NC(=O)c1ccccc1I (centres unmarked) [Compound 5h] | 266
Cn1cnc(S(=O)(=O)N2CCC3(CC2)c2ccccc2CC3NC(=O)c2ccc(Cl)cc2Cl)c1 (centres unmarked) [Compound 7a] | 3500
CCCS(=O)(=O)N1CCC2(CC1)c1ccccc1CC2NC(=O)c1ccc(Cl)cc1Cl (centres unmarked) [Compound 7d] | 52

Biological target: T1, GlyT1
Test: Saturation [14C]-glycine uptake in JAR cells to determine mode of inhibition
Format: cell-based
Details: in the presence of 1 nM NFPS; control Km=28.97 μM; read-out: Km of [14C]-glycine transport
Procedure: To determine the mode of inhibition of GlyT1 inhibitors, a previously published assay for saturation glycine uptake was utilized. Briefly, human placental choriocarcinoma (JAR) cells (ATCC Catalog #HTB-144) were obtained from the American Type Culture Collection (Manassas, Va.). JAR cells were plated at a density of 12,000 cells/well in Cytostar-T 96 well plates (Amersham) in RPMI 1640 Media (Sigma, Catalog #R8758) containing 10 mM HEPES, 1 mM Sodium Pyruvate, 10% fetal bovine serum, 1× Antibiotic/Antimycotic (Invitrogen, Catalog #15240-062), and 4.5 g/L glucose 48 hours prior to the assay. Cell cultures were maintained at 37° C. in an atmosphere of 95% air, 5% CO2. On the day of the assay, culture media was removed, and 30 μL of T1BA buffer (120 mM NaCl, 2 mM KCl, 1 mM CaCl2, 1 mM MgCl2, 10 mM HEPES, 5 mM L-alanine, pH 7.5 using 1M tris base) with or without 2× drug was added to the JAR cells. Plates were incubated for 5 minutes at room temperature, followed by the addition of 30 μL of 2×[^14C]-glycine (111.7 mCi/mmol, obtained from Perkin-Elmer) made up in T1BA Buffer to give final concentrations as indicated. Aliquots of each concentration of [^14C]-glycine were saved in triplicate for direct determination of their concentration via liquid scintillation counting for each assay. Plates were incubated in the dark at room temperature for 3-4 hours and sealed 96-well Cytostar T plates were counted on a Top Count (Perkin-Elmer) with a 1 minute count time per well. Nonspecific uptake was determined in the presence of 10 mM cold glycine. Fixed concentrations of representative compounds and known competitive (ACPPB) and non-competitive inhibitors (NFPS) were included in each assay as comparators.
Data were analyzed by non-linear regression analysis using GraphPad Prism 4.0 (GraphPad, La Jolla, Calif.). Uptake curves were fit to a Michaelis-Menton type equation: V=(Vmax*[S])/(Km+[…]), where V=Velocity in counts per minute (CPM), Vmax=Maximum Velocity in CPM, [S]=Substrate Concentration, and Km is the concentration of substrate to elicit 50% of the Maximal Velocity. Data were additionally plotted as Eadie-Hofstee plots of V versus V/[S] to better visualize the mode of inhibition. […] As an example of the disclosed series of compounds, 9UD was tested side-by-side with known competitive (ACPPB) and non-competitive (NFPS) inhibitors of glycine transport.

Structure (SMILES) | Km [µM]
CN(CCC(Oc1ccc(-c2ccccc2)cc1)c1ccc(F)cc1)CC(=O)O (centres unmarked) [NFPS, (N-[3-(4′-fluorophenyl)-3-(4′-phenylphenoxy)propyl])sarcosine] | 30.7

Same assay, conditions: in the presence of 1 nM NFPS; control Vmax=16056 CPM

Structure (SMILES) | Vmax of [14C]-glycine transport [CPM]
CN(CCC(Oc1ccc(-c2ccccc2)cc1)c1ccc(F)cc1)CC(=O)O (centres unmarked) [NFPS, (N-[3-(4′-fluorophenyl)-3-(4′-phenylphenoxy)propyl])sarcosine] | 9298

Same assay, conditions: in the presence of 5 nM ACPPB; control Vmax=20508 CPM

Structure (SMILES) | Vmax of [14C]-glycine transport [CPM]
CCCS(=O)(=O)N1CCC(c2ccccc2)([C@H](C)NC(=O)c2ccc(Cl)cc2N)CC1 [ACPPB] | 21592

Same assay, conditions: in the presence of 400 nM 9UD; control Vmax=20495 CPM

Structure (SMILES) | Vmax of [14C]-glycine transport [CPM]
CCCCS(=O)(=O)N1CCC2(CC1)c1ccccc1CC2NC(=O)c1ccc(Cl)cc1Cl (centres unmarked) [Compound 9UD] | 20699

Same assay, conditions: with respect to glycine; Eadie-Hofstee analysis

Structure (SMILES) | Mode of inhibition of GlyT1 glycine transport
CCCS(=O)(=O)N1CCC(c2ccccc2)([C@H](C)NC(=O)c2ccc(Cl)cc2N)CC1 [ACPPB] | competitive inhibition
CCCCS(=O)(=O)N1CCC2(CC1)c1ccccc1CC2NC(=O)c1ccc(Cl)cc1Cl (centres unmarked) [Compound 9UD] | competitive inhibition
CN(CCC(Oc1ccc(-c2ccccc2)cc1)c1ccc(F)cc1)CC(=O)O (centres unmarked) [NFPS, (N-[3-(4′-fluorophenyl)-3-(4′-phenylphenoxy)propyl])sarcosine] | non-competitive inhibition
